Data published in patent USRE37781E1, “Substituted cyclic carbonyls and derivatives thereof useful as retroviral protease inhibitors” (DuPont Pharmaceuticals Company, priority 1991, dated 2002).
pKi: −log10 of the molar value. Like-named read-outs stand apart in the source and are kept apart here.

Target: single-chain tethered dimer of HIV protease (Human immunodeficiency virus 1, UniProt P04585)
Assay: biochemical
Type: biochemical
Parameters: fused on or other part: A second copy of the same protease unit is joined to the first by a short peptide tether, giving one polypeptide
Protocol: HIV Protease Inhibition Assay—HPLC Method
Active protease was prepared as described therein by extraction with 67% acetic acid, dilution 33-fold with water, dialysis against water and then against a “refolding buffer” consisting of 20 mM MES, 1 mM dithiothreitol and 10% glycerol. Protease was stored as a stock preparation at 10 uM in refolding buffer.
Substrate: Peptide of sequence: aminobenzoyl-Ala-Thr-His-Gln-Val-Tyr-Phe(NO2)-Val-Arg-Lys-Ala containing p-nitrophenylalanine, was prepared by solid phase synthesis as previously described Cheng et al., op.cit. Stock solutions of 2 mM substrate were prepared in DMSO.
Inhibitory compounds were dissolved in sufficient DMSO to make 3 mM stock solutions. All further dilutions were prepared in “assay buffer”: 1M NaCl, 50 mM MES, pH 5.5, 1 mM EDTA, 1 mM DTT, […] glycerol.
Enzyme reaction: In a 2 ml screw-cap centrifuge tube were added 50 ul protease (final concentration 0.25 nM) and 0.1 ml inhibitory compound (final concentration […]). After 15 min preincubation at room temperature, the reaction was started with the addition of 0.05 ml substrate (final concentration 5 uM). Incubation was carried out at 30 C. for 1 hr. The reaction was stopped with 1 ml 0.1M ammonium hydroxide.
HPLC measurement of product formation: The product (aminobenzoyl-Ala-Thr-His-Gln-Val-Tyr) was separated from substrate on a Pharmacia MonoQ anion exchange column. The injection volume was 0.2 ml. The mobile phases were: A (20 mM trisHCl, pH 9.0, 0.02% sodium Azide, 10% acetonitrile), B (20 mM tris HCl, pH 9.0, 0.02% sodium azide, 0.5M ammonium formate, 10% acetonitrile). The mobile phases were pumped at 1 ml/min, with a gradient from 0 to 30% B in 5 min, 100% B for 4 min to wash the column, and a re-equilibration for 4 min. The retention time of the product was 3.6 min. Detection with a Shimadzu model RF535 fluorescence monitor was at 330 nm (excitation) and 430 (emission).

[1] = Table 2d, HIV protease inhibition, HPLC method, read-out: HPLC K1
[2] = HIV protease inhibition, HPLC method, Table 2d, read-out: HPLC K1
[3] = Table 2d, class symbols, read-out: HPLC K1
[4] = read-out: HPLC K1, Table 2d, class symbols
[5] = read-out: HPLC Ki, Table 1d, lower part

## O=C(NCCN1CCOCC1)c1cccc(CN2C(Cc3ccccc3)C(O)C(O)C(Cc3ccccc3)N(Cc3cccc(C(=O)NCCN4CCOCC4)c3)S2(=O)=O)c1 (stereo not drawn) [23Z]
Table 2m, read-out: HPLC Ki
  pKi: 6.00 to 8.00

## O=C1N(Cc2cccc(-c3nc4ccccc4[nH]3)c2)C(Cc2ccccc2)C(O)C(O)C(Cc2ccccc2)N1Cc1cccc(-c2nc3ccccc3[nH]2)c1 (stereo not drawn) [15AX]
[1]
  pKi: 6.00 to 8.00

## O=C1N(CCCCCn2cccn2)C(Cc2ccccc2)C(O)C(O)C(Cc2ccccc2)N1CCCCCn1cccn1 (stereo not drawn) [15FL]
read-out: HPLC K1, HIV protease inhibition, HPLC method, Table 2d
  pKi: < 6.00

## C=CCCCC1C(O)C(O)C(CCCC=C)N(Cc2ccccc2)C(=O)N1Cc1ccccc1 (stereo not drawn) [Example 16AL]
Table 2e, read-out: K4 HPLC
  pKi: < 6.00

## O=C1N(CC2CC2)C(Cc2ccc(F)cc2)C(O)C(O)C(Cc2ccc(F)cc2)N1CC1CC1 (stereo not drawn) [20H]
read-out: HPLC Ki, Table 2i
  pKi: > 8.00

## CN(C)CCNC(=O)c1cccc(CN2C(=O)N(Cc3cccc(C(=O)NCCN(C)C)c3)C(Cc3ccccc3)C(O)C(O)C2Cc2ccccc2)c1 (stereo not drawn) [15XV]
[1]
  pKi: > 8.00

## O=C1N(Cc2ccccc2)C(CCCCCO)C(O)C(O)C(CCCCCO)N1Cc1ccccc1 (stereo not drawn) [Example 16AN]
Table 2e, read-out: K4 HPLC
  pKi: < 6.00

## C=CCCC1C(O)C(O)C(CCC=C)N(CC=C)C(=O)N1CC=C (stereo not drawn) [Example 16AS]
Table 2e, read-out: K4 HPLC
  pKi: < 6.00

## COC(=O)c1ccc(CN2C(=O)N(Cc3ccc(C(=O)OC)cc3)C(Cc3ccc(OC)cc3)C(O)C(O)C2Cc2ccc(OC)cc2)cc1 (stereo not drawn) [20AI]
Table 2i, read-out: HPLC Ki
  pKi: < 6.00

## O=C1N(Cc2ccccc2)[C@H](Cc2ccc(O)cc2)[C@H](O)[C@@H](O)[C@@H](Cc2ccc(O)cc2)N1Cc1ccccc1 [20AK]
Table 2i, read-out: HPLC Ki
  pKi: > 8.00

## O=C1N(Cc2coc(CO)c2)C(Cc2ccccc2)C(O)C(O)C(Cc2ccccc2)N1Cc1coc(CO)c1 (stereo not drawn) [Example 15FP]
[2]
  pKi: > 8.00

## CC1C(O)C(O)C(C)N(Cc2ccccc2)C(=O)N1Cc1ccccc1 (stereo not drawn) [Example 16G]
read-out: K4 HPLC, Table 2e
  pKi: < 6.00

## O=C1NC(Cc2ccccc2)C(O)C(O)C(Cc2ccccc2)N1CC1CC1CCO (stereo not drawn) [Example 12Z]
[3]
  pKi: 6.00 to 8.00

## O=C1N(Cc2ccccc2)C(Cc2ccc(OCCO)cc2)C(O)C(O)C(Cc2ccc(OCCO)cc2)N1Cc1ccccc1 (stereo not drawn) [20AM]
Table 2i, read-out: HPLC Ki
  pKi: > 8.00

## CCOC(=O)COc1cccc(CC2C(O)C(O)C(Cc3cccc(OCC(=O)OCC)c3)N(CC3CC3)C(=O)N2CC2CC2)c1 (stereo not drawn) [20AV]
Table 2i, read-out: HPLC Ki
  pKi: 6.00 to 8.00

## CCC(CC)CC1C(O)C(O)C(CC(CC)CC)N(Cc2ccccc2)C(=O)N1Cc1ccccc1 (stereo not drawn) [Example 16AM]
Table 2e, read-out: K4 HPLC
  pKi: 6.00 to 8.00

## CCCCCCN1C(=O)N(CCCCCC)C(C(C)C)C(O)C(O)C1C(C)C (stereo not drawn) [Example 16X]
Table 2e, read-out: K4 HPLC
  pKi: > 8.00

## O=C(NC(Cc1ccccc1)C(=O)Nc1cccc(CN2C(=O)N(Cc3cccc(NC(=O)C(Cc4ccccc4)NC(=O)OCc4ccccc4)c3)C(Cc3ccccc3)C(O)C(O)C2Cc2ccccc2)c1)OCc1ccccc1 (stereo not drawn) [15T]
[3]
  pKi: > 8.00

## O=C1N(CC2CC2CO)C(Cc2ccccc2)C(O)C(O)C(Cc2ccccc2)N1CC1CC1CO (stereo not drawn) [Example 12L]
[3]
  pKi: < 6.00

## NC(=NO)c1cccc(CN2C(=O)N(Cc3cccc(C(N)=NO)c3)C(Cc3cccs3)C(O)C(O)C2Cc2cccs2)c1 (stereo not drawn) [16P]
Table 2e, read-out: K4 HPLC
  pKi: > 8.00

## O=C1N(Cc2ccccc2)C(Cc2ccccc2)C(O)C(O)C(Cc2ccccc2)N1Cc1ccccc1 (stereo not drawn) [Example 13Q]
[4]
  pKi: < 6.00

## COc1ccccc1CC1C(O)C(O)C(Cc2ccccc2OC)N(CC2CC2)C(=O)N1CC1CC1 (stereo not drawn) [Example 16S]
Table 2e, read-out: K4 HPLC
  pKi: 6.00 to 8.00

## COC1C(O)C(Cc2ccccc2)N(CC2CC2)C(=O)N(CC2CC2)C1Cc1ccccc1 (stereo not drawn) [Example 7AE]
[5]
  pKi: 6.00 to 8.00

## COC1C(OC)C(Cc2ccccc2)N(CC2CC2)C(=O)N(CC2CC2)C1Cc1ccccc1 (stereo not drawn) [Example 7AF]
[5]
  pKi: < 6.00

## O=C1N(Cc2ccc3nnn(O)c3c2)C(Cc2ccccc2)C(O)C(O)C(Cc2ccccc2)N1Cc1ccc2nnn(O)c2c1 (stereo not drawn) [15CU]
[1]
  pKi: 6.00 to 8.00

## COc1ccc(CC2C(O)C(O)C(Cc3ccc(OC)cc3)N(CC3CC3)C(=O)N2CC2CC2)cc1 (stereo not drawn) [20AF]
Table 2i, read-out: HPLC Ki
  pKi: > 8.00

## CNc1noc2ccc(CN3C(=O)N(Cc4ccc5onc(NC)c5c4)C(Cc4ccccc4)C(O)C(O)C3Cc3ccccc3)cc12 (stereo not drawn) [15DK]
[1]
  pKi: > 8.00

## CC(C)CC1C(O)C(O)C(CC(C)C)N(Cc2ccccc2)C(=O)N1Cc1ccccc1 (stereo not drawn) [Example 16AD]
read-out: K4 HPLC, Table 2e
  pKi: > 8.00

## C=CCN1C(=O)N(CCCC)C(C)C(O)C(O)C1C (stereo not drawn) [Example 16F]
Table 2e, read-out: K4 HPLC
  pKi: < 6.00

## Cc1cncc(OCc2ccccc2)c1CN1C(=O)N(Cc2c(C)cncc2OCc2ccccc2)C(Cc2ccccc2)C(O)C(O)C1Cc1ccccc1 (stereo not drawn) [Example 14J]
[3]
  pKi: 6.00 to 8.00

## COc1ccc(CC2C(O)C(O)C(Cc3ccc(OC)cc3)N(Cc3ccc4ccccc4c3)C(=O)N2Cc2ccc3ccccc3c2)cc1 (stereo not drawn) [20AH]
Table 2i, read-out: HPLC Ki
  pKi: > 8.00

## CSCCC1C(O)C(O)C(CCSC)N(Cc2ccccc2)C(=O)N1Cc1ccccc1 (stereo not drawn) [Example 16AA]
Table 2e, read-out: K4 HPLC
  pKi: < 6.00

## COc1ccc(CC2C(O)C(O)C(Cc3ccc(OC)cc3)N(Cc3ccc(CO)cc3)C(=O)N2Cc2ccc(CO)cc2)cc1 (stereo not drawn) [20AJ]
Table 2i, read-out: HPLC Ki
  pKi: > 8.00

## O=C1N(CC2CC2)C(Cc2ccccc2)C(OCc2ccccc2)C(OCc2ccccc2)C(Cc2ccccc2)N1CC1CC1 (stereo not drawn) [Example 7AG]
[5]
  pKi: < 6.00

## O=C1N(CC2CC2)C(Cc2ccc3ccccc3c2)C(O)C(O)C(Cc2ccc3ccccc3c2)N1CC1CC1 (stereo not drawn) [16L]
Table 2e, read-out: K4 HPLC
  pKi: > 8.00

## COc1ccc(CC2C(O)C(O)C(Cc3ccc(OC)cc3)N(Cc3ccccc3)C(=O)N2Cc2ccccc2)cc1 (stereo not drawn) [20AG]
Table 2i, read-out: HPLC Ki
  pKi: > 8.00

## O=C1N(Cc2ccccc2)C(Cc2c[nH]c3ccccc23)C(O)C(O)C(Cc2c[nH]c3ccccc23)N1Cc1ccccc1 (stereo not drawn) [Example 16Y]
Table 2e, read-out: K4 HPLC
  pKi: 6.00 to 8.00

## Nc1ncc(-c2cccc(CN3C(=O)N(Cc4cccc(-c5ccnc(N)n5)c4)C(Cc4ccccc4)C(O)C(O)C3Cc3ccccc3)c2)cn1 (stereo not drawn) [15BB]
[1]
  pKi: 6.00 to 8.00

## O=C(NCc1cccnc1)c1cccc(CN2C(=O)N(CC3CC3)C(Cc3ccccc3)C(O)C(O)C2Cc2ccccc2)c1 (stereo not drawn) [15YD]
[1]
  pKi: > 8.00

## C=CCN1C(=O)N(CC=C)C(CCCCCCCC)C(O)C(O)C1CCCCCCCC (stereo not drawn) [Example 16AP]
Table 2e, read-out: K4 HPLC
  pKi: 6.00 to 8.00

## O=C1NC(Cc2ccccc2)C(O)C(O)C(Cc2ccccc2)N1Cc1ccco1 (stereo not drawn) [Example 15FV]
[2]
  pKi: > 8.00

## CC(C)C1C(O)C(O)C(C(C)C)N(CC2CC2)C(=O)N1CC1CC1 (stereo not drawn) [Example 16D]
read-out: K4 HPLC, Table 2e
  pKi: 6.00 to 8.00

## C=CCN1C(=O)N(CC=C)C(Cc2ccc(OC)cc2)C(O)C(O)C1Cc1ccc(OC)cc1 (stereo not drawn) [20AL]
Table 2i, read-out: HPLC Ki
  pKi: > 8.00

## CON=C1C(O)C(Cc2ccccc2)N(CC2CC2)C(=O)N(CC2CC2)C1Cc1ccccc1 (stereo not drawn) [Example 7AC]
[5]
  pKi: 6.00 to 8.00

## C=CCN1C(=O)N(CC=C)C(CCc2ccccc2)C(O)C(O)C1CCc1ccccc1 (stereo not drawn) [Example 16B]
read-out: K4 HPLC, Table 2e
  pKi: < 6.00

## O=C1N(CC2CC2c2ccccc2)C(Cc2ccccc2)C(O)C(O)C(Cc2ccccc2)N1CC1CC1c1ccccc1 (stereo not drawn) [Example 14H]
[3]
  pKi: 6.00 to 8.00

## O=C1NC(Cc2ccccc2)C(O)C(O)C(Cc2ccccc2)N1CC1CC1CCCO (stereo not drawn) [Example 13A]
[3]
  pKi: 6.00 to 8.00

## O=C1N(Cc2ccccc2)C(Cc2ccccc2)C(O)C(O)C(Cc2ccccc2)N1Cc1ccccc1 (stereo not drawn) [Example 13Y]
[4]
  pKi: < 6.00

## O=C1N(Cc2ccccc2)C(CCCCO)C(O)C(O)C(CCCCO)N1Cc1ccccc1 (stereo not drawn) [Example 16AO]
Table 2e, read-out: K4 HPLC
  pKi: < 6.00

## C=CCN1C(=O)N(CC=C)C(C)C(O)C(O)C1C (stereo not drawn) [Example 16E]
read-out: K4 HPLC, Table 2e
  pKi: < 6.00

## CC(CCCN1C(=O)N(CCCC(C)n2ccnc2)[C@H](Cc2ccccc2)[C@H](O)[C@@H](O)[C@H]1Cc1ccccc1)n1ccnc1 (stereo partly drawn) [15FK]
[2]
  pKi: < 6.00

## CC(N)C(=O)Nc1cccc(CN2C(=O)N(Cc3cccc(NC(=O)C(C)N)c3)C(Cc3ccccc3)C(O)C(O)C2Cc2ccccc2)c1 (stereo not drawn) [15U]
[3]
  pKi: > 8.00

## O=C1NC(Cc2ccccc2)C(O)C(O)C(Cc2ccccc2)N1Cc1ccc2[nH]nnc2c1 (stereo not drawn) [15DM]
[1]
  pKi: > 8.00

## O=C1NC(Cc2ccccc2)C(O)C(O)C(Cc2ccccc2)N1CC1CC1c1ccccc1 (stereo not drawn) [Example 14I]
[3]
  pKi: 6.00 to 8.00
